Data on one compound can be found in paper PMC10141604, “Small-Molecule Inhibition of Androgen Receptor Dimerization as a Strategy against Prostate Cancer” (ACS Central Science, 2023).

One series deals with NIH-3T3. Briefly: MTT cell viability assay, NIH-3T3. It is filed as cell-based, murine. The note with it: 72 h. The method, then:
(§1) 3-(4,5-dimethythiazol-2-yl)-2,5-diphenyl-2-H-tetrazolium bromide (MTT) colorimetric assay was employed to investigate cell viability. Cells were seeded into 96-well plates with 2-5× 10^3 cells per well (5× 10^3 cells/well for LNCaP, 22RV1, NIH-3T3, GES-1, Chang, […]
(§2) NCI-H1299, U2OS, U87) for 1 day incubation at 37 °C. Then, the cells were treated with various concentrations of compounds (22.86 nM - 50 μM) and incubated for 72 h. Then, 10 μl MTT (5 mg/ml) was added into each well and incubated for 4 h. Afterwards, 100 μl of triplex 10% SDS-0.1% HCl-phosophate-buffered saline (PBS) solutions was added into each well and incubated for overnight. The absorbance at 570 nm was measured (Eon, Bioteck, Winooski, VT). […]
Background: Tetrazolium assays rely on reduction of a dye to a coloured formazan, in cell work by metabolically active cells.

Another series deals with LNCaP. Briefly: MTT cell viability assay, LNCaP. Conditions: 72 h. It counts as cell-based. The method, then: as §1, §2
For series [1], the system named is secreted PSA from LNCaP cells. Briefly: Secreted prostate-specific antigen (PSA) assay. It is filed as cell-based. The method, then: Secreted Prostate-Specific Antigen (PSA) Assay
After the AR transcriptional activity assay was completed, 300 μl of the media
supernatant including the secreted PSA was measured using […]® 2000 XPi
Immunoassay System (Siemens Ltd., Erlangen, Germany). […]

The next series addresses T1, AR (Homo sapiens, UniProt P10275, T878A).
T1 construct: The cells of LNCaP-ARR2PB-eGFP were; endogenous in cells; host or cells: LNCaP-ARR2PB-eGFP
T1 sequence (P10275 1-920 T878A): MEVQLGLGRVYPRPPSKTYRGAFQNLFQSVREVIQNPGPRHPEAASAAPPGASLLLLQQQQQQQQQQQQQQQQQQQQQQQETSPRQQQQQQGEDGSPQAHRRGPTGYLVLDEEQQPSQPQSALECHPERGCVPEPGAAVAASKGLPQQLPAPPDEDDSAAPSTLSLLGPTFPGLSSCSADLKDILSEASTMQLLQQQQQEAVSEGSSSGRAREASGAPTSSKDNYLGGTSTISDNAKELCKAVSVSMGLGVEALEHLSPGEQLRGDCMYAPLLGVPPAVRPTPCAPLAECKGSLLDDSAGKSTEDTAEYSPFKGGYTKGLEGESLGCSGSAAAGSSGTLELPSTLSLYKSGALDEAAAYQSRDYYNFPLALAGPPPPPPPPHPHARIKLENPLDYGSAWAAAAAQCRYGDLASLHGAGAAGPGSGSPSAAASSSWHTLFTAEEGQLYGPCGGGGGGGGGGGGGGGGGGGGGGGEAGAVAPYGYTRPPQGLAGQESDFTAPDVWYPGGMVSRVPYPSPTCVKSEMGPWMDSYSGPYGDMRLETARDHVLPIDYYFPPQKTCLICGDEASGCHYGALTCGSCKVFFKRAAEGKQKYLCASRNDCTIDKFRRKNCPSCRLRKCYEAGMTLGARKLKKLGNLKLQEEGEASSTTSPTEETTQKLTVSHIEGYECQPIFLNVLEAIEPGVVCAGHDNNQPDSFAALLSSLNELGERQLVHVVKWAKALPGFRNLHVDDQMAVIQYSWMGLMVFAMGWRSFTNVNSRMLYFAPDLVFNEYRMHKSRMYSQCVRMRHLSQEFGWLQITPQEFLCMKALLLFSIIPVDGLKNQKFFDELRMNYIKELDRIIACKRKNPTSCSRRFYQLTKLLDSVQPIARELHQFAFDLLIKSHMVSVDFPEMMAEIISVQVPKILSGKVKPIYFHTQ
Briefly: AR transcriptional activity assay (LNCaP-ARR2PB-eGFP cells). It counts as cell-based. Conditions: 5 nM DHT. On the procedure: University, Hangzhou, China), respectively. […]
AR Transcriptional Activity Assay
The AR transcriptional activities were determined using the constructed LNCaP-ARR2PB-eGFP cell as previously reported.11, 12 The cells of LNCaP-ARR2PB-eGFP were […]
by seeding into a 96 -well plate (3.5× 10^4 cells/well) for 1 day incubation at 37 °C. Then, the cells were treated with 5 nM DHT and various concentrations of compounds (10 μM […]
the fluorescence intensities were determined using a Synergy H1 microplate reader

Another series deals with T2, AR LBP (Rattus norvegicus, UniProt P15207).
T2 construct: purchased Invitrogen Life Technologies A15880
T2 sequence (P15207 651-882 limits assumed): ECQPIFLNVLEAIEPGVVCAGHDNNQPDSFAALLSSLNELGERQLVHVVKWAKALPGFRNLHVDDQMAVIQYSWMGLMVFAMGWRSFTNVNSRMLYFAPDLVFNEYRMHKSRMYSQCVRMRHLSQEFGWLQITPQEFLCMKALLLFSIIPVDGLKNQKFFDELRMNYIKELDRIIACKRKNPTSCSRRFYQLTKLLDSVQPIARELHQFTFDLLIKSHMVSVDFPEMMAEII
Briefly: Competitive ligand-binding assay (PolarScreen AR competitor assay). On the procedure:
Competitive Ligand Binding Assay
The binding affinities of M17 and M17-B15 to the LBP of AR LBD were determined
using PolarScreen™ Androgen Receptor Competitor Assay Kit (#A15880, Invitrogen Life
Technologies) according to the user manual. […]

As usually defined, the IC50 is the concentration that inhibits the measured activity by half. For orientation: inhibition means the share of the control response that was lost under treatment.

With `CC(=O)Cc1nsc(NC(=O)c2cc(-c3ccc(Cl)c(Cl)c3)oc2C)n1` [Compound M17], in the series with NIH-3T3, the “cytotoxicity against NIH-3T3” value is “negligible cytotoxicity”. Further, the “inhibition of LNCaP viability” value with LNCaP is “dose-dependent manner in the inhibition”. In addition, the “inhibition of the secretion of PSA” value in series [1] is reported as “dose-dependently inhibits”. Moreover, at AR (LNCaP-ARR2PB-eGFP cells, 3 days), the 50% inhibitory concentration (IC50) worked out at 950 ± 390 nM. The inhibition at 10 µM at AR (at 10 μM) worked out at 92.7%. Also, the “binding to the conventional LBP” value on AR LBP was “excluded”.
